Laboratory results: the supplement of paper PMC12137928
Structures can show the parent of a compound that is named as a salt.

System: HCT116
Conditions: 72 h
How it was run: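 Four-parameter Hill fits gave IC50 and maximal efficacy. The data were CellTiter-Glo luminescence readings in HCT116 cells, normalized so that vehicle was 0% and positive control was -100%, with pattern correction afterwards.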

SMILES	IC50 cell viability (ICRF193 0 nM)	IC50 cell viability (ICRF193 200 nM)
C=CCCCCCCCCC(=O)[O-].C=CCCCCCCCCC(=O)[O-].[Ca+2] [Calcium undecylenate]	> 45.8 µM	> 45.8 µM
Cc1nc(C)c(Cl)c(O)c1Cl [Clopidol]	> 45.8 µM	> 45.8 µM
NCCCC(N)(C(=O)O)C(F)F (stereo not given) [Eflornithine Hydrochloride]	> 45.8 µM	> 45.8 µM
C=C/C=C\CC1=C(C)[C@@H](OC(=O)[C@@H]2[C@@H](/C=C(\C)C(=O)OC)C2(C)C)CC1=O [PYRETHRIN II]	> 45.8 µM	> 45.8 µM
NC(=O)c1ncn([C@@H]2O[C@H](CO)[C@@H](O)[C@H]2O)c1O [Mizoribine]	> 45.8 µM	> 45.8 µM
O=C1OCCN1/N=C/c1ccc([N+](=O)[O-])o1 [Furazolidone]	> 45.8 µM	> 45.8 µM
CC[N+](CC)(CC)CCOC(=O)C(C1CCCC1)C1CCCC1 [Diponium bromide]	> 45.8 µM	> 45.8 µM
NS(=O)(=O)c1cc2c(cc1Cl)NCNS2(=O)=O [Hydrochlorothiazide]	> 45.8 µM	> 45.8 µM
NCC(CC(=O)O)c1ccc(Cl)cc1 (stereo not given) [Baclofen]	> 45.8 µM	> 45.8 µM
Cc1ncc(CO)c(CO)c1O [Vitamin B6]	> 45.8 µM	> 45.8 µM
C=C1CC[C@H](O)C/C1=C/C=C1\CCC[C@]2(C)[C@@H]([C@H](C)CC[C@H](O)C(C)(C)O)CC[C@@H]12 [(24S)-24,25-Dihydroxyvitamin D3]	> 45.8 µM	> 45.8 µM
CNC(=O)Oc1cccc2ccccc12 [Carbaryl]	> 45.8 µM	> 45.8 µM
CCCC(=O)O[C@]1(C(=O)COC(=O)CC)CC[C@H]2[C@@H]3CCC4=CC(=O)CC[C@]4(C)[C@H]3[C@@H](O)C[C@@]21C [Hydrocortisone buteprate]	> 45.8 µM	> 45.8 µM
O=P(O)(O)OP(=O)(O)O [Pyrophosphoric acid]	> 45.8 µM	> 45.8 µM
CC(=O)O[C@H]1CC[C@@]2(C)C(=CC[C@H]3[C@@H]4CC[C@H](C(C)=O)[C@@]4(C)CC[C@@H]32)C1 [Pregnenolone acetate]	> 45.8 µM	> 45.8 µM
O=[N+]([O-])/N=C1\NCCN1Cc1ccc(Cl)nc1 [Imidacloprid]	> 45.8 µM	> 45.8 µM
CC(C)C(Br)C(=O)NC(N)=O (stereo not given) [Bromisovalum]	> 45.8 µM	> 45.8 µM
Cn1ccnc1S [Methimazole]	> 45.8 µM	> 45.8 µM
Oc1cccc2cccnc12 [8-Quinolinol Salicylic acid (1:1)]	> 45.8 µM	> 45.8 µM
O=C(O)[C@@H]1CCCN1 [L-Proline]	> 45.8 µM	> 45.8 µM
CC(O)(P(=O)(O)O)P(=O)(O)O [Etidronate disodium]	> 45.8 µM	> 45.8 µM
C=C(C)[C@H]1CN[C@H](C(=O)O)[C@H]1CC(=O)O [Kainic acid]	> 45.8 µM	> 45.8 µM
CN(C)C(=O)N[C@H]1CC[C@H](CCN2CCN(c3cccc(Cl)c3Cl)CC2)CC1 [Cariprazine]	> 45.8 µM	> 45.8 µM
O=C(O)c1ccccn1 [Picolinic acid]	> 45.8 µM	> 45.8 µM
CN1[C@@H]2CCC(C)(C)[C@H]1C[C@H](OC(=O)C(O)(c1cccs1)c1cccs1)C2 [Mazaticol]	> 45.8 µM	> 45.8 µM
CN1CCc2nc(C(=O)N[C@@H]3C[C@@H](C(=O)N(C)C)CC[C@@H]3NC(=O)C(=O)Nc3ccc(Cl)cn3)sc2C1 [Edoxaban tosylate monohydrate]	> 45.8 µM	> 45.8 µM
O=C(O)/C=C\C(=O)O [Maleic acid]	> 45.8 µM	> 45.8 µM
NCCCCCC(=O)O [Aminocaproic acid]	> 45.8 µM	> 45.8 µM
Cn1c(=O)c2c(ncn2C)n(C)c1=O [Caffeine]	> 45.8 µM	> 45.8 µM
CO[C@H]1O[C@@H]2O[C@@]3(C)CC[C@H]4[C@H](C)CC[C@@H]([C@H]1C)[C@@]24OO3 [Artemether]	> 45.8 µM	> 45.8 µM

The next lines start with the values.

IC50 cell viability (ICRF193 0 nM)	IC50 cell viability (ICRF193 200 nM)	SMILES
> 45.8 µM	> 45.8 µM	CN(C)CCc1c[nH]c2ccc(CS(=O)(=O)N3CCCC3)cc12 [Almotriptan]
> 45.8 µM	> 45.8 µM	CC(C)(C)NCC(O)COc1cccc2c1CCC(=O)N2 (stereo not given) [Carteolol hydrochloride]
> 45.8 µM	> 45.8 µM	Cc1ccc(Cl)c(OCC(O)CNC(C)(C)C)c1 (stereo not given) [Bupranolol]
> 45.8 µM	> 45.8 µM	N[C@@H](C(=O)N[C@@H]1C(=O)N2C(C(=O)O)=C(CSc3c[nH]nn3)CS[C@H]12)c1ccc(O)cc1 [Cefatrizine]
> 45.8 µM	> 45.8 µM	C[C@@H]1CCN(C(=O)CC#N)C[C@@H]1N(C)c1ncnc2[nH]ccc12 [Tofacitinib]
> 45.8 µM	> 45.8 µM	C[C@H](N)C(=O)N[C@@H](C)C(=O)N[C@H]1[C@@H]2CN(c3nc4c(cc3F)c(=O)c(C(=O)O)cn4-c3ccc(F)cc3F)C[C@@H]21 [Alatrofloxacin mesylate]
> 45.8 µM	> 45.8 µM	O=C(O)CC/C=C\CC[C@@H]1[C@@H](N2CCCCC2)[C@@H](O)C[C@@H]1OCc1ccc(-c2ccccc2)cc1 [Vapiprost hydrochloride]
> 45.8 µM	> 45.8 µM	CO[C@H]1C[C@@H]2CC[C@@H](C)[C@@](O)(O2)C(=O)C(=O)N2CCCC[C@H]2C(=O)O[C@H]([C@H](C)C[C@@H]2CC[C@@H](OCCO)[C@H](OC)C2)CC(=O)[C@H](C)/C=C(\C)[C@@H](O)[C@@H](OC)C(=O)[C@H](C)C[C@H](C)/C=C/C=C/C=C/1C [Everolimus]
> 45.8 µM	> 45.8 µM	COc1cccc(N2CCN(C3=Nc4c(F)cccc4[C@H](CC(=O)O)N3c3cc(C(F)(F)F)ccc3OC)CC2)c1 [Letermovir]
> 45.8 µM	> 45.8 µM	CCC(NC(C)C)C(O)c1ccc(O)c2[nH]c(=O)ccc12 (stereo not given) [Procaterol]
> 45.8 µM	> 45.8 µM	CC(C)(C)C(O)/C=C/c1ccc2c(c1)OCO2 (stereo not given) [Stiripentol]
> 45.8 µM	> 45.8 µM	CC(CN1c2ccccc2Sc2cccnc21)N(C)C (stereo not given) [Isothipendyl hydrochloride]
> 45.8 µM	> 45.8 µM	Cc1ccc(O)cc1 [p-Cresol]
> 45.8 µM	> 45.8 µM	Clc1ccc(Cn2c(CN3CCCC3)nc3ccccc32)cc1 [Clemizole hydrochloride]
> 45.8 µM	> 45.8 µM	CN(C)CC[C@@H](c1ccc(Cl)cc1)c1ccccn1 [Dexchlorpheniramine hydrochloride]
> 45.8 µM	> 45.8 µM	COCC(=O)Nc1c(I)c(C(=O)NCC(O)CO)c(I)c(C(=O)N(C)CC(O)CO)c1I (stereo not given) [Iopromide]
> 45.8 µM	> 45.8 µM	COC(=O)N(C)c1c(N)nc(-c2nn(Cc3ccccc3F)c3ncccc23)nc1N [Riociguat]
> 45.8 µM	> 45.8 µM	COc1ccc2c(c1OC)C(=O)O[C@@H]2[C@H]1c2c(cc3c(c2OC)OCO3)CCN1C [Noscapine]

IC50 cell viability (ICRF193 0 nM)	IC50 cell viability (ICRF193 200 nM)	SMILES
> 45.8 µM	> 45.8 µM	O=C(O)c1cn(-c2ccc(F)cc2)c2cc(N3CCNCC3)c(F)cc2c1=O [Sarafloxacin hydrochloride]
> 45.8 µM	> 45.8 µM	Cc1ccc(C(C)C)c(O)c1 [Thymol]
> 45.8 µM	> 45.8 µM	CO/N=C(\C(=O)N[C@@H]1C(=O)N2C(C(=O)O)=C(CSC(=O)c3ccco3)CS[C@H]12)c1csc(N)n1 [CEFTIOFUR HYDROCHLORIDE]
> 45.8 µM	> 45.8 µM	CCCC1C(=O)N2C(N(C)C)=Nc3ccc(C)cc3N2C1=O (stereo not given) [Azapropazone]
> 45.8 µM	> 45.8 µM	CCOC(=O)c1ccc(NC(=O)CN2CCCCC2)cc1 [Sulcaine]
> 45.8 µM	> 45.8 µM	OCCOCCN1CCN(C(c2ccccc2)c2ccc(Cl)cc2)CC1 (stereo not given) [Hydroxyzine]
> 45.8 µM	> 45.8 µM	c1ccc2sc(SSc3nc4ccccc4s3)nc2c1 [2,2'-Dithiobisbenzothiazole]
> 45.8 µM	> 45.8 µM	O=C1OC(c2ccc(O)cc2)(c2ccc(O)cc2)c2ccccc21 [Phenolphthalein]
> 45.8 µM	> 45.8 µM	COc1ccc(CNCC(O)COc2ccc3[nH]c(=O)ccc3c2)cc1OC (stereo not given) [Toborinone]
> 45.8 µM	> 45.8 µM	COc1ccc2c(c1)C(=O)N(CCc1ccc(S(=O)(=O)NC(=O)NC3CCCCC3)cc1)C(=O)C2(C)C [Gliquidone]
> 45.8 µM	> 45.8 µM	Nc1c2c(nc3ccccc13)CCCC2 [Tacrine hydrochloride]
> 45.8 µM	> 45.8 µM	CCn1cc(C(=O)O)c(=O)c2ccc(C)nc21 [Nalidixic acid]
> 45.8 µM	> 45.8 µM	CCn1cc(C(=O)O)c(=O)c2cc(F)c(N3CCNC(C)C3)c(F)c21 (stereo not given) [Lomefloxacin hydrochloride]
> 45.8 µM	> 45.8 µM	C/N=C(\NC)NCc1ccccc1 [Bethanidine sulfate (2:1)]
> 45.8 µM	> 45.8 µM	CCN1CCCC1CNC(=O)c1cc(S(=O)(=O)CC)c(N)cc1OC (stereo not given) [Amisulpride]
> 45.8 µM	> 45.8 µM	CCN(CCO)CCCC(C)Nc1ccnc2cc(Cl)ccc12 (stereo not given) [Hydroxychloroquine sulfate]
> 45.8 µM	> 45.8 µM	O=C1CN2Cc3c(ccc(Cl)c3Cl)N=C2N1 [Anagrelide hydrochloride]
